Experiment [1] has as its target T1, Bcl-xL (Mus musculus, UniProt Q64373).
T1 construct: Western blot of Bcl-xl levels in the livers of STZ/HFD mice treated with 753b or vehicle control; from tissue; host or cells: liver of C57BL6 mice (STZ plus high fat diet)
Nature of the experiment: Bcl-xL level in livers of STZ/HFD mice (Western blotting). It counts as in vivo, C57BL6 mice. The note with it: 5 mg/kg twice a week IP, postnatal day 90, vs vehicle. Here is the method:
GAPDH was used as a loading control. FIG. 6B depicts the relative expression of p16 and p21 at mRNA levels in the livers of STZ/HFD mice treated with 753b or vehicle control. *p<0.05. FIGS. 6C to 6D show senescence-associated beta-galactosidase (SA-β-gal) stained livers of STZ/HFD mice treated with vehicle control (FIG. 6C) or 753b (FIG. 6D). Scale bar: […].
Experimental design: C57BL6 mice were injected with Streptozotocin (STZ) at postnatal day 2 to induce diabetes and then fed with HFD from postnatal day 30 till the end of the experiments (FIG. 5). Half of the mice started receiving vehicle and the others receiving 753b (5 mg/kg) treatment on postnatal day 45 twice a week by IP injection till the end of the experiments. A group of the mice were euthanized at postnatal day 90 (or day 45 after the initiation of the treatment) for analysis of senescent cell accumulation and steatosis. Another group of the mice were euthanized at postnatal day 150 (or day 105 after the initiation of the treatment) for analysis of liver fibrosis and cancer.
753b effectively clears senescent cells induced by STZ/HFD in the liver. The liver tissues were collected from mice at postnatal day 90 (p90 or 45 days after treatment) for the analyses. […] Data were means±SD of triplicate experiments.
In general terms: A western blot detects proteins with antibodies after separation by electrophoresis.

In experiment [2] the test system is ionizing radiation (IR) induced senescent WI-38 fibroblast cells (IR-SnCs). Nature of the experiment: Viability of IR-induced senescent WI-38 fibroblast cells. It counts as cell-based. The note with it: 72 hr incubation; vs ABT263. From the text: (§1) FIG. 2A depicts immunoblots showing degradation of Bcl-xl and Bcl-2 in non-senescent WI-38 fibroblast cells (Non-SnCs) treated with varying concentrations of 753b. 3-actin was used as a loading control. FIG. 2B depicts viability of Non-SnCs treated with varying concentrations of 753b or ABT263. FIG. 2C depicts immunoblots showing degradation of Bcl-xl and Bcl-2 in ionizing radiation-induced senescent WI-38 fibroblast cells (IR-SnCs) treated with varying concentrations of 753b. 3-actin was used as a loading control. FIG. 2D depicts viability of IR-SnCs treated with varying concentrations of 753b or ABT263. FIG. 2E depicts immunoblots showing degradation of Bcl-xl and Bcl-2 in human platelets treated with varying concentrations of 753b. FIG. 2F depicts viability of human platelets treated with varying concentrations of 753b or ABT263.
(§2) The potency of 753b in degrading Bcl-xl/2 was evaluated by immunoblots after the cells or platelets were treated with different concentrations of 753b for 16 h ([…]). 753b is more cytotoxic to IR-SnCs but less toxic to Non-SnCs and platelets. The viability of Non-SnCs, IR-SnCs and platelets was measured 72 hr (Non-SnCs and IR-SnCs) and 48 hr (platelets) after they were incubated with increasing concentrations of 753b or ABT263 compared to cells/platelets with vehicle.

The test system of experiment [3] is replicative senescent REC (Rep-SnC REC). Nature of the experiment: Viability of Rep-SnC REC. It counts as cell-based. The note with it: 72 hr incubation; vs ABT263. Here is the method: FIGS. 3A to 3B depicts viability of non-SnC human umbilical vein endothelial cells (HUVEC) and IR-induced SnC HUVEC treated with varying concentrations of ABT263 (FIG. 3A) or 753b (FIG. 3B). FIGS. 3C to 3D depict viability of non-SnC renal epithelial cells (REC), IR-induced SnC REC, and replicative senescent REC treated with varying concentrations of ABT263 (FIG. 3C) or 753b (FIG. 3D).
The viability of Non-SnC HUVEC, Non-SnC REC, IR-SnC HUVEC, IR-SnC REC, and Rep-SnC REC was measured 72 hr after they were incubated with increasing concentrations of 753b or ABT263 compared to cells/platelets with vehicle.

The target of experiment [4] is Bcl-xl (Homo sapiens, UniProt Q07817). Nature of the experiment: Immunoblot of Bcl-xl degradation in WI-38 fibroblast cells (Non-SnCs and IR-SnCs). The experiment is classed as cell-based. Also on record: degradation of Bcl-xl and Bcl-2 in non-senescent WI-38 fibroblast cells (Non-SnCs) treated with varying concentrations of 753b; endogenous in cells; host or cells: WI-38 fibroblasts (non-senescent and ionizing-radiation-induced senescent). The note with it: different concentrations, 16 h, dose-dependent.
Bcl-xl, sequence (Q07817 whole entry): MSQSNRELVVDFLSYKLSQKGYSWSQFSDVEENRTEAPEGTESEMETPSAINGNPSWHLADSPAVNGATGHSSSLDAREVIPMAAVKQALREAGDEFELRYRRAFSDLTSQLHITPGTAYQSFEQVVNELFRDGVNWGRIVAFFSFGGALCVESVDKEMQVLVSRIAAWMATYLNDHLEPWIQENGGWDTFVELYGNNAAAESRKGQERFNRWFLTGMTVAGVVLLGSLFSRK
Source text: as §1, §2

T1 sequence (Q64373 whole entry): as the sequence (Q07817 whole entry) above, with G40E, S43A, M45R, A168S, E193D counted along it

For the compound `Cc1ncsc1-c1ccc([C@H](C)NC(=O)[C@@H]2C[C@@H](O)CN2C(=O)[C@@H](NC(=O)CCCCCCC(=O)N2CCN(C[C@]3(C)CCC(c4ccc(Cl)cc4)=C(CN4CCN(c5ccc(C(=O)NS(=O)(=O)c6ccc(N[C@H](CCN7CCOCC7)CSc7ccccc7)c(S(=O)(=O)C(F)(F)F)c6)cc5)CC4)C3)CC2)C(C)(C)C)cc1` [Compound 753b], the “Bcl-xL accumulation in the livers” value on Bcl-xL [1] is given as “reduced Bcl-xL accumulation”. Moreover, in experiment [2], the “Senolytic potency (viability) against IR-SnCs compared with ABT263” value is given as “more potent senolytic agent”. Besides, the “Senolytic potency (viability) against Rep-SnC REC compared with ABT263” value in experiment [3] is listed as “more potent senolytic agent”. In addition, the “Bcl-xl degradation in IR-SnCs” value at Bcl-xl [4] (IR-induced senescent WI-38 fibroblast cells) is “degrades Bcl-xl and Bcl-2 in Non-SnCs and IR-SnCs”. The “Bcl-xl degradation in Non-SnCs” value at Bcl-xl [4] (non-senescent WI-38 fibroblast cells) is “degrades Bcl-xl and Bcl-2 in Non-SnCs and IR-SnCs”.

The values above are taken from patent US20240398764A1, “METHODS OF TREATING DISEASES ASSOCIATED WITH SENESCENT CELL ACCUMULATION” (University of Florida Research Foundation, Incorporated, priority 2021, published 2024).
